Test results as given in patent publication US20080153866A1, “Amorphous Taclolimus Solid Dispersion Having an Enhanced Solubility and Pharmaceutical Composition Comprising Same” (Hinmi Pharm Co., Ltd, priority 2005, published 2008).

Assays:
[1] = Thermodynamic stability test (endothermic peak in DSC scan); assay type: physicochemical
Text: The mixture of Comparative Example 1, solid dispersion of Example 1 and crystalline taclolimus were each subjected to a thermodynamic stability test by examining the change in the endothermic peak in its DSC scan. The temperatures representing respective endothermic peaks are represented in Table 17, and the overall DSC results are shown in FIG. 1.

[2] = cited from earlier work

Endothermic peak temperature [1]: 127.0 °C
SMILES: C=CC[C@@H]1/C=C(\C)C[C@H](C)C[C@H](OC)[C@H]2O[C@@](O)(C(=O)C(=O)N3CCCCC3C(=O)O[C@H](/C(C)=C/C3CC[C@@H](O)[C@H](OC)C3)[C@H](C)[C@@H](O)CC1=O)[C@H](C)C[C@@H]2OC (stereo partly drawn) [Taclolimus, (—)-(1R,9S,13R,14S,17R,18E,21S,23S,24R,25S,27R)-17-allyl-1,14-dihydroxy-12-[(E)-2-[(1R,3R,4R)-4-hydroxy-3-methoxycyclohexyl]-1-methylvinyl]-23,25-dimethoxy-13,19,21,27-tetramethyl-11,28-dioxa-4-azatricyclo[22.3.1.0^4.9]octacos-18-ene-2,3,10,16-tetrone hydrate]
Solubility in organic solvents ([2]; organic solvents such as anhydrous ethanol): very soluble | Solubility in water ([2]; water): insoluble in water
